Data as given in patent US11052063B2, “Methods of reducing RLP-C” (Amarin Pharmaceuticals Ireland Limited, priority 2014, dated 2021).

System: Serum RLP-C
Assay: 12-week placebo-controlled study (ANCHOR), serum RLP-C by immunoseparation assay, statin-treated patients with fasting TG ≥200 and <500 mg/dl
Type: in vivo, human
Settings: for Median Change from Baseline in RLP-C vs. Placebo: Hodges-Lehmann estimate; for Median Change from Baseline in RLP-C vs. Placebo / RLP-C Concentration End of Treatment: week 12; for RLP-C Concentration Change: median change from baseline to week 12; for RLP-C Concentration Baseline / RLP-C Concentration End of Treatment: median; for RLP-C Concentration Baseline: before treatment
Experimental: A multi-center, placebo-controlled, randomized, double-blind, 12-week study was performed to evaluate the efficacy and safety of >96% E-EPA in patients with fasting triglyceride levels≥200 mg/dl and <500 mg/dl despite statin therapy (the mean of two qualifying entry values needed to be ≥185 mg/dl and at least one of the values needed to be ≥200 mg/dl). The primary objective of the study was to determine the efficacy of >96%, by weight of all fatty acids present, ethyl-EPA (“AMR101”) 2 g daily and 4 g daily, compared to placebo, in lowering fasting TG levels in patients with high risk for cardiovascular disease and with fasting TG levels≥200 mg/dl and <500 mg/dl, despite treatment to LDL-C goal on statin therapy. The population for this study was men and women>18 years of age with a body mass index≤45 kg/m^2 with fasting TG levels greater than or equal to 200 mg/dl and less than 500 mg/dl and on a stable does of statin therapy (with or without ezetimibe). The statin was atorvostatin, rosuvastatin or simvastatin. The dose of statin must have been stable for ≥4 weeks prior to the LDL-C/TG baseline qualifying measurement for randomization. The statin dose was optimized such that the patients are at their LDL-C goal at the LDL-C/TG baseline qualifying measurements. The same statin at the same dose was continued until the study ended. Approximately 702 patients were randomized at approximately 80 centers in the U.S. The study was a 18- to 20-week, Phase 3, multi-center study consisting of 2 study periods: (1) A 6- to 8-week screening period that included a diet and lifestyle stabilization, a non-statin lipid-altering treatment washout, and an LDL-C and TG qualifying period and (2) A 12-week, double-blind, randomized, placebo-controlled treatment period. After confirmation of qualifying fasting LDL-C and TG values, eligible patients entered a 12-week, randomized, double-blind treatment period. At Visit 4 (Week 0), patients were randomly assigned to 1 of the following treatment groups: • >96% E-EPA 2 g daily, • >96% E-EPA 4 g daily, or • Placebo. >96% E-EPA was provided in 1 g liquid-filled, oblong, gelatin capsules. The matching placebo capsule was filled with light liquid paraffin and contained 0 g of >96% E-EPA. >96% E-EPA capsules were to be taken with food (i.e. with or at the end of a meal). During the double-blind treatment period, patients were to take 2 capsules (>96% E-EPA or matching placebo) in the morning and 2 capsules in the evening for a total of 4 capsules per day. • Patients in the >96% E-EPA 2 g/day treatment group received 1 >96% E-EPA 1 g capsule and 1 matching placebo capsule in the morning and in the evening. • Patients in the >96% E-EPA 4 g/day treatment group received 2 >96% E-EPA 1 g capsules in the morning and evening. The primary efficacy variable for the double-blind treatment period was percent change in TG from baseline to Week 12 endpoint. […]

[1] = 2 g/day, Baseline TG <259 mg/dl
[2] = 2 g/day, Baseline TG ≥259 mg/dl
[3] = 2 g/day, Lower Statin Intensity
[4] = 2 g/day, Medium and Higher Statin Intensity
[5] = 4 g/day, Baseline TG <259 mg/dl
[6] = 4 g/day, Baseline TG ≥259 mg/dl
[7] = 4 g/day, Lower Statin Intensity
[8] = 4 g/day, Medium and Higher Statin Intensity

## CC/C=C\C/C=C\C/C=C\C/C=C\C/C=C\CCCC(=O)OCC [AMR101, ethyl-EPA]
2 g/day treatment group, 12 weeks
  RLP-C compared to placebo: reduced RLP-C compared to placebo
[1]
  Median Change from Baseline in RLP-C vs. Placebo: −16.4%
  RLP-C Concentration Change: −8.1%
  RLP-C Concentration Baseline: 11.5 mg/dL
  RLP-C Concentration End of Treatment: 11.0 mg/dL
[2]
  Median Change from Baseline in RLP-C vs. Placebo: −18.0%
  RLP-C Concentration Change: −17.4%
  RLP-C Concentration Baseline: 18.0 mg/dL
  RLP-C Concentration End of Treatment: 13.5 mg/dL
2 g/day, ITT
  Median Change from Baseline in RLP-C vs. Placebo: −16.7%
  RLP-C Concentration Change: −11.1%
  RLP-C Concentration Baseline: 15.0 mg/dL
  RLP-C Concentration End of Treatment: 11.0 mg/dL
[3]
  Median Change from Baseline in RLP-C vs. Placebo: 2.7%
  RLP-C Concentration Change: −11.1%
  RLP-C Concentration Baseline: 15.0 mg/dL
  RLP-C Concentration End of Treatment: 11.0 mg/dL
[4]
  Median Change from Baseline in RLP-C vs. Placebo: −17.3%
  RLP-C Concentration Change: −11.1%
  RLP-C Concentration Baseline: 15.0 mg/dL
  RLP-C Concentration End of Treatment: 11.0 mg/dL
4 g/day treatment group, 12 weeks, p=0.0001, stated as reduction
  median placebo-adjusted reduction in RLP-C: 25.8%
4 g/day treatment group, 12 weeks, stated as reduction
  reductions in RLP-C compared to baseline: 24.0%
[5]
  Median Change from Baseline in RLP-C vs. Placebo: −22.2%
  RLP-C Concentration Change: −16.0%
  RLP-C Concentration Baseline: 11.0 mg/dL
  RLP-C Concentration End of Treatment: 9.0 mg/dL
[6]
  Median Change from Baseline in RLP-C vs. Placebo: −30.6%
  RLP-C Concentration Change: −31.3%
  RLP-C Concentration Baseline: 17.0 mg/dL
  RLP-C Concentration End of Treatment: 11.0 mg/dL
4 g/day, ITT
  Median Change from Baseline in RLP-C vs. Placebo: −25.8%
  RLP-C Concentration Change: −24.0%
  RLP-C Concentration Baseline: 13.5 mg/dL
  RLP-C Concentration End of Treatment: 10.0 mg/dL
[7]
  Median Change from Baseline in RLP-C vs. Placebo: −11.9%
  RLP-C Concentration Change: −29.2%
  RLP-C Concentration Baseline: 16.0 mg/dL
  RLP-C Concentration End of Treatment: 15.0 mg/dL
[8]
  Median Change from Baseline in RLP-C vs. Placebo: −26.7%
  RLP-C Concentration Change: −23.1%
  RLP-C Concentration Baseline: 13.0 mg/dL
  RLP-C Concentration End of Treatment: 10.0 mg/dL
Subjects on moderate- to high-intensity statin therapy compared to lower-intensity statin therapy
  RLP-C reductions by statin intensity: greater RLP-C reductions
